Each structure is given as a SMILES string.

Sequence of human adenosine A2b receptor (P29275 whole entry): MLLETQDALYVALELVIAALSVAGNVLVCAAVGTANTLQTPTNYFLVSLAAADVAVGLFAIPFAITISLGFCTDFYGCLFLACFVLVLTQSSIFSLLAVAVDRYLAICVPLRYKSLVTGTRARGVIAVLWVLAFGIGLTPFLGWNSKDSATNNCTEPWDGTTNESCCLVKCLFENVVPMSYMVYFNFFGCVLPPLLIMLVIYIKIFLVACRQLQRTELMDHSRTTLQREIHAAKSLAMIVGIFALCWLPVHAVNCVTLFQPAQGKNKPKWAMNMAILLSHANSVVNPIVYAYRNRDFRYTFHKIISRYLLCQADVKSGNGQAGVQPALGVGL

The target of the assay is human adenosine A2b receptor (Homo sapiens (Human), UniProt P29275). The experiment in a line: Cellular in vitro reporter gene test for A2b receptor activity (CHO-K1, CRE-luciferase, NECA stimulation). The note with it: recombinant CHO-K1 cell line, CRE-luciferase reporter, antagonism of EC50 concentration of NECA; in some cases means of several determinations, rounded to two significant figures; read-out: A2b receptor IC50. The assay is classed as cell-based. In a few lines:
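CHO-K1 cells with CRE-driven luciferase; antagonists co-incubated with NECA at its EC50, determined in a pre-experiment on each test day. Luciferase read by luminescence 3 h after NECA addition.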
On the technique in general: Reporter assays use an easily measured gene product as a stand-in for the process of interest.
What is called IC50 is the concentration needed to halve the response being measured. For `COCCn1c(=O)c2c(C)c(CN3CCNC3=NC(=O)OC)sc2n(CC2CCCO2)c1=O` (single isomer, unassigned) [Example 391, Methyl [1-f{[3-(2-methoxyethyl)-5-methyl-2,4-dioxo-1-(tetrahydrofuran-2-ylmethyl)-1,2,3,4-tetrahydrothieno[2,3-d]pyrimidin-6-yl]methyl}imidazolidin-2-ylidene]carbamate], the IC50 is 34 nM.

In the case of `CCn1c(=O)c2c(C)c(Cn3nc[nH]c3=O)sc2n(CCCF)c1=O` [Example 353, 3-Ethyl-1-(3-fluoropropyl)-5-methyl-6-[(5-oxo-4,5-dihydro-1H-1,2,4-triazol-1-yl)methyl]thieno[2,3-d]pyrimidine-2,4(1H,3H)-dione], the IC50 is 31 nM.

Consider `COC(C)Cn1c(=O)c2c(C)c(CN3CCNC3=O)sc2n(CCC(F)(F)F)c1=O` (single isomer, unassigned) [Example 413, 3-(2-Methoxypropyl)-5-methyl-6-[(2-oxoimidazolidin-1-yl)methyl]-1-(3,3,3-trifluoropropyl)thieno[2,3-d]pyrimidine-2,4(1H,3H)-dione], for which the IC50 turned out to be 4.6 nM.

As for `CCn1c(=O)c2c(C)c(CN3CCNC3=O)sc2n(CC2CCCO2)c1=O` (single isomer, unassigned; enantiomer 1) [Example 69, 3-Ethyl-5-methyl-6-[(2-oxoimidazolidin-1-yl)methyl]-1-(tetrahydrofuran-2-ylmethyl)thieno[2,3-d]pyrimidine-2,4(1H,3H)-dione (Enantiomer 1)], the IC50 was 9.8 nM.

On to `Cc1c(CN2CCNC2=S)sc2c1c(=O)n(CC(F)(F)F)c(=O)n2CC1CCCO1` (single isomer, unassigned) [Example 299, 5-Methyl-1-(tetrahydrofuran-2-ylmethyl)-6-[(2-thioxoimidazolidin-1-yl)methyl]-3-(2,2,2-trifluoroethyl)thieno[2,3-d]pyrimidine-2,4(1H,3H)-dione], for which the IC50 was 5.6 nM.

Turning to `CCn1c(=O)c2c(C)c(CN3CCNC3=O)sc2n(CC(F)F)c1=O` [Example 177, 1-(2,2-Difluoroethyl)-3-ethyl-5-methyl-6-[(2-oxoimidazolidin-1-yl)methyl]thieno[2,3-d]pyrimidine-2,4(1H,3H)-dione], the IC50 is 15 nM.

Regarding `COCCn1c(=O)c2c(C)c(CN3CCNC(=O)C3=O)sc2n(CC2CCO2)c1=O` (single isomer, unassigned) [Example 402, 6-[(2,3-Dioxopiperazin-1-yl)methyl]-3-(2-methoxyethyl)-5-methyl-1-(oxetan-2-ylmethyl)thieno[2,3-d]pyrimidine-2,4(1H,3H)-dione], the IC50 was 100 nM.

For `Cc1c(CN2CCNC2=S)sc2c1c(=O)n(CC(F)(F)F)c(=O)n2CCCF` [Example 40, 1-(3-Fluoropropyl)-5-methyl-6-[(2-thioxoimidazolidin-1-yl)methyl]-3-(2,2,2-trifluoroethyl)thieno[2,3-d]pyrimidine-2,4(1H,3H)-dione], the IC50 was found to be 7 nM.

As to `COC(C)(C)Cn1c(=O)c2c(C)c(CN3CCNC3=O)sc2n(CCCF)c1=O` [Example 237, 1-(3-Fluoropropyl)-3-(2-methoxy-2-methylpropyl)-5-methyl-6-[(2-oxoimidazolidin-1-yl)methyl]thieno[2,3-d]pyrimidine-2,4(1H,3H)-dione], the IC50 was determined as 17 nM.

As to `CCOCCn1c(=O)n(CC(C)C)c(=O)c2c(C)c(CN3CCNC3=O)sc21` [Example 193, 1-(2-Ethoxyethyl)-3-isobutyl-5-methyl-6-[(2-oxoimidazolidin-1-yl)methyl]thieno[2,3-d]pyrimidine-2,4(1H,3H)-dione], the IC50 was 25 nM.

Take `COCCn1c(=O)c2c(C)c(CN3CCNC(=O)C3=O)sc2n(CC2CCO2)c1=O` (single isomer, unassigned) [Example 401, 6-[(2,3-Dioxopiperazin-1-yl)methyl]-3-(2-methoxyethyl)-5-methyl-1-(oxetan-2-ylmethyl)thieno[2,3-d]pyrimidine-2,4(1H,3H)-dione]: the IC50 was found to be 660 nM.

On to `C=C(C)CCn1c(=O)c2c(C)c(CN3CCNC3=O)sc2n(CCOC)c1=O` [Example 319, 1-(2-Methoxyethyl)-5-methyl-3-(3-methylbut-3-en-1-yl)-6-[(2-oxoimidazolidin-1-yl)methyl]thieno[2,3-d]pyrimidine-2,4(1H,3H)-dione], for which the IC50 is 2.4 nM.

`COC(=O)N=C1NCCN1Cc1sc2c(c1C)c(=O)n(CC(C)(C)C)c(=O)n2CC1CCCO1` (racemic) [Example 463, Methyl [1-{[3-(2,2-dimethylpropyl)-5-methyl-2,4-dioxo-1-(tetrahydrofuran-2-ylmethyl)-1,2,3,4-tetrahydrothieno[2,3-d]pyrimidin-6-yl]methyl}imidazolidin-2-ylidene]carbamate]: the IC50 was determined as 9.9 nM.

`CCn1c(=O)c2c(C)c(CN3Cc4ccccc4C3=O)sc2n(CCC(F)(F)F)c1=O` [Example 11, 3-Ethyl-5-methyl-6-[(1-oxo-1,3-dihydro-2H-isoindol-2-yl)methyl]-1-(3,3,3-trifluoropropyl)thieno[2,3-d]pyrimidine-2,4(1H,3H)-dione]: the IC50 was determined as 19 nM.

For `CCn1c(=O)c2c(C(F)(F)F)c(CN3CCOC3=O)sc2n(CCC(F)(F)F)c1=O` [Example 23, 3-Ethyl-6-[(2-oxo-1,3-oxazolidin-3-yl)methyl]-5-(trifluoromethyl)-1-(3,3,3-trifluoropropyl)thieno[2,3-d]pyrimidine-2,4(1H,3H)-dione], the 50% inhibitory concentration (IC50) was found to be 16 nM.

As for `CCn1c(=O)c2c(C)c(CN3CCNC3=O)sc2n(CC2CCCCO2)c1=O` (racemic) [Example 71, 3-Ethyl-5-methyl-6-[(2-oxoimidazolidin-1-yl)methyl]-1-(tetrahydro-2H-pyran-2-ylmethyl)thieno[2,3-d]pyrimidine-2,4(1H,3H)-dione (racemate)], the IC50 is 70 nM.

Take `COCCn1c(=O)n(CCc2ccccc2)c(=O)c2c(C)c(CN3CCCS3(=O)=O)sc21` [Example 15, 6-[(1,1-Dioxido-1,2-thiazolidin-2-yl)methyl]-1-(2-methoxyethyl)-5-methyl-3-(2-phenylethyl)thieno[2,3-d]pyrimidine-2,4(1H,3H)-dione]: the IC50 was found to be 3.1 nM.

`CCn1c(=O)c2c(C)c(Cn3cc[nH]c3=O)sc2n(CC2CCCO2)c1=O` (racemic) [Example 242, 3-Ethyl-5-methyl-6-[(2-oxo-2,3-dihydro-1H-imidazol-1-yl)methyl]-1-(tetrahydrofuran-2-ylmethyl)thieno[2,3-d]pyrimidine-2,4(1H,3H)-dione]: the IC50 worked out at 1.4 nM.

With `CCn1c(=O)c2c(C)c(CN3CCNC3=O)sc2n(CC2CCCO2)c1=O` (racemic) [Example 68, 3-Ethyl-5-methyl-6-[(2-oxoimidazolidin-1-yl)methyl]-1-(tetrahydrofuran-2-ylmethyl)thieno[2,3-d]pyrimidine-2,4(1H,3H)-dione (racemate)], the IC50 was found to be 8.9 nM.

In the case of `COCCn1c(=O)c2c(C)c(CN3CCNC3=O)sc2n(CC2CCCO2)c1=O` (single isomer, unassigned) [Example 324, 3-(2-Methoxyethyl)-5-methyl-6-[(2-oxoimidazolidin-1-yl)methyl]-1-(tetrahydrofuran-2-ylmethyl)thieno[2,3-d]pyrimidine-2,4(1H,3H)-dione], the IC50 turned out to be 110 nM.

In the case of `CCn1c(=O)c2c(C)c(CN3CCCN(C)C3=O)sc2n(CCC(F)(F)F)c1=O` [Example 108, 3-Ethyl-5-methyl-6-[(3-methyl-2-oxotetrahydropyrimidin-1(2H)-yl)methyl]-1-(3,3,3-trifluoropropyl)thieno[2,3-d]pyrimidine-2,4(1H,3H)-dione], the IC50 stood at 3.3 nM.

Consider `COCCn1c(=O)c2c(C)c(CN3CCNC3=NC#N)sc2n(CC2CCO2)c1=O` (single isomer, unassigned) [Example 366, [1-{[3-Methoxyethyl-5-methyl-1-(oxetan-2-ylmethyl)-2,4-dioxo-1,2,3,4-tetrahydrothieno[2,3-d]pyrimidin-6-yl]methyl}imidazolidin-2-ylidene]cyanamide], for which the IC50 amounted to 40 nM.

In the case of `Cc1c(CN2CCNC2=O)sc2c1c(=O)n(C(C)C)c(=O)n2CC1CCCO1` (racemic) [Example 186, 3-Isopropyl-5-methyl-6-[(2-oxoimidazolidin-1-yl)methyl]-1-(tetrahydrofuran-2-ylmethyl)thieno[2,3-d]pyrimidine-2,4(1H,3H)-dione], the IC50 turned out to be 13 nM.

As to `Cc1c(CN2CCNC(=O)C2=O)sc2c1c(=O)n(C(C)C)c(=O)n2CC1CCO1` (single isomer, unassigned) [Example 398, 6-[(2,3-Dioxopiperazin-1-yl)methyl]-3-isopropyl-5-methyl-1-(oxetan-2-ylmethyl)thieno[2,3-d]pyrimidine-2,4(1H,3H)-dione], the IC50 came to 240 nM.

For `CCn1c(=O)c2c(C)c(Cn3nc[nH]c3=O)sc2n(CCOC)c1=O` [Example 114, 3-Ethyl-1-(2-methoxyethyl)-5-methyl-6-[(5-oxo-4,5-dihydro-1H-1,2,4-triazol-1-yl)methyl]thieno[2,3-d]pyrimidine-2,4(1H,3H)-dione], the IC50 was 39 nM.

For the compound `COCCn1c(=O)n(CC(F)(F)F)c(=O)c2c(C)c(CN3CCNC(=O)C3=O)sc21` [Example 486, 6-[(2,3-Dioxopiperazin-1-yl)methyl]-1-(2-methoxyethyl)-5-methyl-3-(2,2,2-trifluoroethyl)thieno[2,3-d]pyrimidine-2,4(1H,3H)-dione], the IC50 was determined as 190 nM.

As for `Cc1c(CN2CCNC(=O)C2=O)sc2c1c(=O)n(CC(C)(C)C)c(=O)n2CC1CCCO1` (racemic) [Example 483, 3-(2,2-Dimethylpropyl)-6-[(2,3-dioxopiperazin-1-yl)methyl]-5-methyl-1-(tetrahydrofuran-2-ylmethyl)thieno[2,3-d]pyrimidine-2,4(1H,3H)-dione], the IC50 came to 45 nM.

With `Cc1c(CN2CCNC2=S)sc2c1c(=O)n(CC(F)(F)F)c(=O)n2CCC(F)(F)F` [Example 152, 5-Methyl-6-[(2-thioxoimidazolidin-1-yl)methyl]-3-(2,2,2-trifluoroethyl)-1-(3,3,3-trifluoropropyl)thieno[2,3-d]pyrimidine-2,4(1H,3H)-dione], the 50% inhibitory concentration (IC50) came to 0.79 nM.
